Consider 13 compounds from US11161825B2, “4-oxo-2,3,4,5-tetrahydro-1H-1,5-benzodiazepine-7-carboxamides” (Bayer Aktiengesellschaft, priority 2017, dated 2021).

In experiment [1] the target is T1, SMYD3 (Homo sapiens, UniProt Q9H7B4).
T1 construct: The SMYD3 full length enzyme was produced in-house by expression (with an N-terminal 6×His tag) in E. coli; 6xHis (N); made in house; host or cells: E. coli
T1 sequence (Q9H7B4 1-428): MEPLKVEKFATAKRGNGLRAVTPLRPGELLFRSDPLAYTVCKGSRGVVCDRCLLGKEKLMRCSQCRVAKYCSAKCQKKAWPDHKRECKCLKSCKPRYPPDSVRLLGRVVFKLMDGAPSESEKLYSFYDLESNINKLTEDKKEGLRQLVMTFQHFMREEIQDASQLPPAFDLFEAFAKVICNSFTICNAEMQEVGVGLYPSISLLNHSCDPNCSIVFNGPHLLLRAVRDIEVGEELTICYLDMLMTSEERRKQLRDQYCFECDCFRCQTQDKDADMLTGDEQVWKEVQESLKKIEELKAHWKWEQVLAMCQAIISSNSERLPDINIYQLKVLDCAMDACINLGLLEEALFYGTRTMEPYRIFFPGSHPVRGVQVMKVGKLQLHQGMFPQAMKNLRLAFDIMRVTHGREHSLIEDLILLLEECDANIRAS
As to the kind of experiment: SMYD3 Scintillation Proximity Assay (SPA), methylation of MAP3K2 Peptide. The class given is biochemical. The note with it: SMYD3 full length enzyme 10 nM, 3H-SAM 125 nM, MAP3K2 Peptide 1 μM, 120 min at 22° C. On the procedure:
SMYD3 Scintillation Proximity Assay (SPA)
The SMYD3 full length enzyme was produced in-house by expression (with an N-terminal 6×His tag) in E. coli and purification by affinity chromatography on a Ni-NTA Sepharose column followed by a size exclusion chromatography step on a Superdex 200 16/60 column (GE Healthcare).
To this end, 100-fold concentrated compound solutions (in DMSO) were previously prepared by serial dilution (1:3.4) of 2 mM stocks in a clear low volume 384-well source microtiter plate (Greiner Bio-One), from which 100 nl of compounds were transferred into a white low volume test microtiter plate from the same supplier. […] The resulting mixture (5 μl final volume) was shortly centrifuged (2 min., 1500 rpm) and incubated at 22° C. during 120 min. […] Plates containing the stopped reaction were sealed with transparent adhesive foil (Perkin Elmer), centrifuged (2 min., 1500 rpm), and further incubated overnight at 4° C. in order to allow the SPA signals to develop. Subsequently, the amount of product was evaluated by measuring the energy transfer from the […] emitted by the 3H-labeled substrate to the scintillator co-polymerized in the bead's matrix, using a TopCount NXT scintillation counter (Packard) with the standard instrument settings for this purpose. The resulting scintillation counts were taken as indicator for the amount of methylated peptide per well. […] IC50 values were calculated by fitting the normalized inhibition data to a 4-parameter logistic equation using the XLFit analysis software (IDBS).
In general terms: In a scintillation proximity assay essentially only radioactivity close to the scintillant gives light.

Experiment [2] has as its target T2, untagged full length SMYD3 (Homo sapiens, UniProt Q9H7B4).
T2 construct: As protein untagged full length SMYD3 was used
T2 sequence (Q9H7B4 1-428): T1 sequence (Q9H7B4 1-428)
As to the kind of experiment: Thermal Shift Assay. The format is binding. The note with it: protein 1.5-2.0 μM, 5× SYPRO Orange, scans 25° C. to 80° C.; control 4% DMSO. On the procedure:
Thermal Shift Assay Thermal melting experiments were performed with a ViiA™ Real-Time PCR machine (Thermo Fisher Scientific) in 384-well microliter plate with a final volume of 5 μL. Melting curves were obtained at a protein concentration of 1.5-2.0 μM and 5× SYPRO Orange (Invitrogen) using buffer containing 20 mM Tris pH7.0; 150 mM NaCl; 1.0 mM DTT. As protein untagged full length SMYD3 was used. […] As control 4% DMSO was used. Scans were measured from 25° C. to 80° C. at a scanning rate of 0.1° C./sec. All TSA data were analyzed by using Genedata Assay Analyzer.

Structures are written as SMILES.

What is called IC50 is the midpoint of a concentration-inhibition curve. The low end stands for inhibition by little substance, the high end for a need for much substance. `CCN1CCN(C(=O)N2c3ccc(C(=O)NCCC4CC4)cc3NC(=O)C[C@@H]2C)CC1` [Example 27, (2S)—N-(2-cyclopropylethyl)-1-[(4-ethylpiperazin-1-yl)carbonyl]-2-methyl-4-oxo-2,3,4,5-tetrahydro-1H-1,5-benzodiazepine-7-carboxamide]: the concentration for half-maximal inhibition (IC50) in experiment [1] stood at 0.52 µM. Further, in experiment [2], the “Thermal shift assay (° C.)” value is 8.77 °C.

For the compound `CCCCCNC(=O)c1ccc2c(c1)NC(=O)CC(C)N2C(=O)c1ccccc1F` (racemic) [Example 46, 1-(2-fluorobenzoyl)-2-methyl-4-oxo-N-pentyl-2,3,4,5-tetrahydro-1H-1,5-benzodiazepine-7-carboxamide], the 50% inhibitory concentration (IC50) in experiment [1] stood at 38.7 µM. In addition, the “Thermal shift assay (° C.)” value in experiment [2] worked out at 2.02 °C.

Regarding `C[C@H]1CC(=O)Nc2cc(C(=O)NCCC3CC3)ccc2N1C(=O)N1CCNCC1` [Example 41, (2S)—N-(2-cyclopropylethyl)-2-methyl-4-oxo-1-(piperazin-1-ylcarbonyl)-2,3,4,5-tetrahydro-1H-1,5-benzodiazepine-7-carboxamide], inhibition in experiment [1] was half-maximal at 0.265 µM (IC50). Besides, the “Thermal shift assay (° C.)” value in experiment [2] is 7.22 °C.

For the compound `C[C@H]1CC(=O)Nc2cc(C(=O)NCCC3CC3)ccc2N1C(=O)N(C)C1CCN(CC(F)(F)F)CC1` [Example 31, (2S)—N^7-(2-cyclopropylethyl)-N^1,2-dimethyl-4-oxo-N^1-[1-(2,2,2-trifluoroethyl)piperidin-4-yl]-2,3,4,5-tetrahydro-1H-1,5-benzodiazepine-1,7-dicarboxamide], the concentration for half-maximal inhibition (IC50) in experiment [1] was determined as 2.52 µM. In addition, in experiment [2], the “Thermal shift assay (° C.)” value came to 2.79 °C.

As to `Cc1nocc1C(=O)N1c2ccc(C(=O)NCCC3CCC3)cc2NC(=O)C(C)C1C` (single isomer, unassigned) [Example 16, N-(2-cyclobutylethyl)-2,3-dimethyl-1-[(3-methyl-1,2-oxazol-4-yl)carbonyl]-4-oxo-2,3,4,5-tetrahydro-1H-1,5-benzodiazepine-7-carboxamide], inhibition in experiment [1] was half-maximal at 3.38 µM (IC50). The “Thermal shift assay (° C.)” value in experiment [2] is 3.51 °C.

In experiment [1], `C[C@H]1CC(=O)Nc2cc(C(=O)NCCC3CC3)ccc2N1C(=O)N1CC2CC2C1` (stereo partly drawn) [Example 23, (2S)-1-(3-azabicyclo[3.1.0]hex-3-ylcarbonyl)-N-(2-cyclopropylethyl)-2-methyl-4-oxo-2,3,4,5-tetrahydro-1H-1,5-benzodiazepine-7-carboxamide] showed a half-maximal inhibitory concentration (IC50) of 0.0589 µM. For the same compound, the “Thermal shift assay (° C.)” value in experiment [2] was 9.88 °C.

In turn, `Cc1nocc1C(=O)N1c2ccc(C(=O)NCCC3CCC3)cc2NC(=O)C(C)C1C` (single isomer, unassigned) [Example 13, N-(2-cyclobutylethyl)-2,3-dimethyl-1-[(3-methyl-1,2-oxazol-4-yl)carbonyl]-4-oxo-2,3,4,5-tetrahydro-1H-1,5-benzodiazepine-7-carboxamide] had an IC50 in experiment [1] of 4.62 µM. Besides, the “Thermal shift assay (° C.)” value in experiment [2] was 3.71 °C.

In experiment [1], `C[C@H]1CC(=O)Nc2cc(C(=O)NCCC3CC3)ccc2N1C(=O)N1CCC(F)(F)C1` [Example 24, (2S)—N-(2-cyclopropylethyl)-1-[(3,3-difluoropyrrolidin-1-yl)carbonyl]-2-methyl-4-oxo-2,3,4,5-tetrahydro-1H-1,5-benzodiazepine-7-carboxamide] registered an IC50 of 0.706 µM. The “Thermal shift assay (° C.)” value in experiment [2] was 7.35 °C.

`C[C@H]1CC(=O)Nc2cc(C(=O)NCCC3CC3)ccc2N1C(=O)N1CCCNCC1` [Example 33, (2S)—N-(2-cyclopropylethyl)-1-(1,4-diazepan-1-ylcarbonyl)-2-methyl-4-oxo-2,3,4,5-tetrahydro-1H-1,5-benzodiazepine-7-carboxamide] had an IC50 in experiment [1] of 0.046 µM. Moreover, the “Thermal shift assay (° C.)” value in experiment [2] is 10.17 °C.

In turn, `C[C@H]1CC(=O)Nc2cc(C(=O)NCCC3CC3)ccc2N1C(=O)NC1CCNCC1` [Example 43, (2S)—N^7-(2-cyclopropylethyl)-2-methyl-4-oxo-N^1-(piperidin-4-yl)-2,3,4,5-tetrahydro-1H-1,5-benzodiazepine-1,7-dicarboxamide] came in with an IC50 in experiment [1] of 0.481 µM. Further, the “Thermal shift assay (° C.)” value in experiment [2] stood at 7.49 °C.

Compound `Cc1nocc1C(=O)N1c2ccc(C(=O)NCCC3CCC3)cc2NC(=O)CC1C` (racemic) [Example 6, N-(2-cyclobutylethyl)-2-methyl-1-[(3-methyl-1,2-oxazol-4-yl)carbonyl]-4-oxo-2,3,4,5-tetrahydro-1H-1,5-benzodiazepine-7-carboxamide] yielded an IC50 in experiment [1] of 12.8 µM. For the same compound, the “Thermal shift assay (° C.)” value in experiment [2] stood at 2.83 °C.

Compound `CCCCNC(=O)c1ccc2c(c1)NC(=O)CC(C)N2C(=O)c1ccccc1F` (racemic) [Example 53, N-butyl-1-(2-fluorobenzoyl)-2-methyl-4-oxo-2,3,4,5-tetrahydro-1H-1,5-benzodiazepine-7-carboxamide] registered an IC50 in experiment [1] of 12.3 µM. For the same compound, in experiment [2], the “Thermal shift assay (° C.)” value worked out at 2.53 °C.

On to `Cc1nocc1C(=O)N1c2ccc(C(=O)NCCC3CCC3)cc2NC(=O)C(C)C1C` (single isomer, unassigned) [Example 15, N-(2-cyclobutylethyl)-2,3-dimethyl-1-[(3-methyl-1,2-oxazol-4-yl)carbonyl]-4-oxo-2,3,4,5-tetrahydro-1H-1,5-benzodiazepine-7-carboxamide], for which the concentration for half-maximal inhibition (IC50) in experiment [1] was at least 20 µM. For the same compound, in experiment [2], the “Thermal shift assay (° C.)” value was found to be 1.27 °C.
